According to patent US7763426B2, “Probes and methods for detection of Escheridia coli and antibiotic resistance” (priority 2004, dated 2010):
“Also recorded” adds a separate entry of the source. {Fluorescein} = fluorescein label (binding site for anti-fluorescein Fab-HRP); {Biotin} = biotin (capture probe anchor)

Tests used:
[1] = system: 16S rRNA in lysates of uropathogens; test: Species specificity of uropathogen probe pairs with the electrochemical sensor array (Example 1); assay type: binding; conditions: probe pairs of Table 1
bacterial 16S rRNA = test: Clinical validity study: UTI Chip on blinded clinical urine specimens; assay type: binding
Method: Amperometric detection of bacterial 16S rRNA. An overview of the electrochemical sensor detection strategy is presented in panel C of FIG. 1. One ml of bacteria in Luria broth, inoculated clean urine, or clinical urine samples was centrifuged at 10,000×g for 5 min. The supernatant was discarded and the bacteria were lysed by resuspension of the pellet in 10 μl of 1 M NaOH and incubation at room temperature for 5 min. In some experiments, addition of 1M NaOH was preceded by resuspension of the bacterial pellet in 10 μl of 0.1% Triton X-100, 2 mM EDTA, and 1 mg/ml lysozyme (Sigma) in 20 mM Tris-HCl, pH 8.0, and incubation at room temperature for 5 min. 50 μl of the detector probe (0.25 μM) in 2.5% bovine serum albumin (Sigma, St. Louis, Mo.) 1 M phosphate buffer, pH 7.4, were added to the bacterial lysate and incubated for 10 min at 65° C. to allow target-probe hybridization. 4 μl of the bacterial lysate/detector probe mixture was deposited on each of the working electrodes in the sensor array and incubated for 15 min at 65° C. in a humidified chamber. After washing and drying, 4 μl of 0.5 U/ml anti-fluorescein horseradish peroxidase (HRP) Fab fragments (Roche, diluted in 0.5% casein in 10 mM phosphate buffered saline, pH 7.4) were deposited on each of the working electrodes for 15 min. After washing and drying, a prefabricated plastic well manifold (GeneFluidics, Monterey Park, Calif.) was bonded to the sensor array. The sensor array was put into the chip reader (FIG. 18) and 50 μl of 3,3′,5,5′-tetramethylbenzidine (TMB), H2O2 solution (K-Blue Low Activity TMB Substrate, Neogen, Lexington, Ky.) was placed on each of the sensors in the array so as to cover all three electrodes of each sensor. Electrochemical measurements are immediately and simultaneously taken for all 16 sensors. For each array, negative control (NC) sensors were tested including the UNI capture probe, detector probe, and 2.5% bovine serum albumin (Sigma, St, Louis, Mo.) in 1 M phosphate buffer, pH 7.4, instead of bacterial lysate. The entire assay protocol was completed within 45 min from the time when bacterial lysis was commenced. Amperometric current vs. time was measured using a multichannel potentiostat (GeneFluidics). The voltage was fixed at −200 mV (vs. reference), and the electroreduction current was measured at 60 s after the HRP redox reaction reached steady state.
Clinical validity study design. Clinical urine specimens were received from routine urine cultures collected from inpatients and outpatients and submitted to the UCLA Clinical Microbiology Laboratory. Routine plating on tripticase soy agar with 5% sheep blood was performed on each specimen for phenotypic identification and colony counting while an aliquot of each specimen was held at 4° C. overnight. On the day after plating, specimens were selected for inclusion in the study on the basis of a rapid indole test for the purpose of including uropathogens other than Escherichia coli in approximately one-half of the specimens. The other half of the specimens were divided between E. coli-containing specimens and specimens determined to have ““no significant growth” or no growth” (see definitions below). Because most UTIs involve a single uropathogen, specimens determined by the clinical microbiology laboratory to have more than one organism present were excluded. Blinded specimens selected for inclusion in the study were stripped of patient identifiers and any microbiological data before delivery to the research laboratory for testing with the electrochemical sensor array.
Experiments were performed on all specimens using the 16-sensor array ‘UTI Chip’, in which the UNI, EB, EC, PM, KE, PA, and EF capture probes (defined in Tables 1 and 2) were tested in duplicate. The two remaining sensors served as negative controls (including capture and detector probes without bacterial lysate). […]

[2] = No Significant Growth specimens
[3] = specimens with Citrobacter freundii
[4] = specimens with Citrobacter koseri
[5] = specimens with Enterobacter aerogenes
[6] = specimens with Enterobacter cloacae
[7] = specimens with Enterobacteriaceae
[8] = specimens with Enterococcus species
[9] = specimens with Escherichia coli
[10] = specimens with Gram-negative bacteria
[11] = specimens with Gram-positive bacteria
[12] = specimens with Klebsiella pneumoniae
[13] = specimens with Proteus mirabilis
[14] = specimens with Pseudomonas aeruginosa
[15] = specimens with Serratia marcescens
[16] = specimens with Staph. saprophyticus

## UNI: Universal Bacterial probe pair: capture 797 (27 mer) SEQ ID NO: 13, detector 766 (31 mer) SEQ ID NO: 14 (DNA 1 CATCGTTTACGGCGTGGACTACCAGGG; DNA 2 TATCTAATCCTGTTTGCTCCCCACGCTTTCG; DNA 1: DNA, 5' {Biotin}, backbone and methylation of C not given here; DNA 2: DNA, 5' {Fluorescein}, backbone and methylation of C not given here)
[1]
  Species detected: Cf, Ea, Ec, Ef, El, Eo, Ko, Kp,; also recorded: Mm, Pa, Pm, Ss, Sa
  Species not detected: None
Bacterial 16S rRNA
  sensitivity for detection of Gram-negative bacteria in clinical urine specimens: 100%
Bacterial 16S rRNA; 10/12 no growth specimens
  specificity: 83%
Bacterial 16S rRNA; 54/58, 0.30 log unit threshold
  overall sensitivity for detection of uropathogens in clinical urine specimens: 93%
Bacterial 16S rRNA; All specimens with bacteria
  Mean (range): 1.28 (0.33-1.84) log10 units over background
  Positive/Total = Percent: 54/58 = 93%
Bacterial 16S rRNA; No Growth specimens
  Mean (range): 0.38 (0.34-0.42) log10 units over background
  Positive/Total = Percent: 2/12 = 17%
Bacterial 16S rRNA; [2]
  Mean (range): 0.42 (0.31-0.57) log10 units over background
  Positive/Total = Percent: 5/3 = 63%
Bacterial 16S rRNA; [3]
  Mean (range): 1.49 (1.43-1.55) log10 units over background
  Positive/Total = Percent: 2/2 = 100%
Bacterial 16S rRNA; [4]
  Mean (range): 1.23 log10 units over background
  Positive/Total = Percent: 1/1 = 100%
Bacterial 16S rRNA; [5]
  Mean (range): 1.35 (0.93-1.65) log10 units over background
  Positive/Total = Percent: 5/5 = 100%
Bacterial 16S rRNA; [6]
  Mean (range): 1.43 log10 units over background
  Positive/Total = Percent: 1/1 = 100%
Bacterial 16S rRNA; [7]
  Mean (range): 1.32 (0.40-1.84) log10 units over background
  Positive/Total = Percent: 47/47 = 100%
Bacterial 16S rRNA; [8]
  Mean (range): 0.92 (0.33-1.78) log10 units over background
  Positive/Total = Percent: 5/8 = 63%
Bacterial 16S rRNA; [9]
  Mean (range): 1.30 (0.54-1.77) log10 units over background
  Positive/Total = Percent: 26/26 = 100%
Bacterial 16S rRNA; [10]
  Mean (range): 1.32 (0.40-1.84) log10 units over background
  Positive/Total = Percent: 48/48 = 100%
Bacterial 16S rRNA; [11]
  Mean (range): 0.95 (0.33-1.78) log10 units over background
  Positive/Total = Percent: 6/10 = 60%
Bacterial 16S rRNA; [12]
  Mean (range): 1.22 (0.40-1.84) log10 units over background
  Positive/Total = Percent: 8/8 = 100%
Bacterial 16S rRNA; [13]
  Mean (range): 1.41 (1.16-1.66) log10 units over background
  Positive/Total = Percent: 3/3 = 100%
Bacterial 16S rRNA; [14]
  Mean (range): 1.33 log10 units over background
  Positive/Total = Percent: 1/1 = 100%
Bacterial 16S rRNA; [15]
  Mean (range): 1.67 log10 units over background
  Positive/Total = Percent: 1/1 = 100%
Bacterial 16S rRNA; [16]
  Mean (range): 1.10 log10 units over background
  Positive/Total = Percent: 1/2 = 50%
